These results are taken from publication PMC5904165, “Insight into the cold adaptation and hemicellulose utilization of Cladosporium neopsychrotolerans from genome analysis and biochemical characterization” (Scientific Reports, 2018).

The target in experiment [1] is T1, Xyl43A.
T1 construct: intracellular enzyme
Description: inhibition of pNPX hydrolysis, Dixon plot. In kind it is biochemical, Cladosporium neopsychrotolerans. The conditions noted are these: pNPX substrate, McIlvaine buffer pH 6.8, room temperature, 10 min; mode not stated.

Experiment [2] concerns T1, Xyl43A. In words: p-nitrophenol release, Michaelis-Menten fit. Particulars: 35 °C (optimum), optimal pH; 1-10 mM pNPX used, so the table's unit mg/mL may be doubtful. In kind it is biochemical, Cladosporium neopsychrotolerans. The source says: p-nitrophenol release, Michaelis-Menten fit on Xyl43A

Turning to `OC1OC[C@@H](O)[C@H](O)[C@H]1O` (stereo partly drawn) [D-xylose], at Xyl43A [1], the Ki (as a rule, a dissociation constant, usually derived from enzyme kinetics or from competition with a known ligand) stood at 43.3 mM.
Consider `O=[N+]([O-])c1ccc(O[C@@H]2OC[C@@H](O)[C@H](O)[C@H]2O)cc1` [pNPX], for which the “Xyl43A / 35 °C (Topt)” value in the experiment on Xyl43A [2] was 2.73 ± 0.37 mg/mL.
